This note sets out measurements from patent publication US8354436B2 (4SC Discovery GmbH, priority 2011, dated 2013).

Each structure is given as a SMILES string. Where two headings read alike, the source gives them in different places.

Common to all, as to type: cell-based
Test [1] has as its system IL-17FF. In words: IL-17FF production by PHA-stimulated human PBMC (human IL-17F ELI-Pair). The note with it: 48 hours. As for the experimental part: (§1) Analysis of Proliferation of and Cytokine Production by Human PBMC Stimulated with PHA
(§2) Peripheral blood mononuclear cells (PBMC) from healthy human donors were purified using Accuspin™ System-Histopaque-1077 (Sigma) according to the protocol recommended by the manufacturer. Purified PBMC were then washed twice with phosphate-buffered saline (PBS) and resuspended in RPMI1640 culture medium supplemented with 10% dialyzed heat inactivated fetal calf serum, 1.5 mM L-glutamine, 100 U penicillin/ml, and […] (all from PAN Biotech, Aidenbach, Germany). For stimulation, PBMC were seeded at 1×10^5 cells/well, activated with 2 μg/ml phytohaemagglutinin (PHA, Sigma) and incubated with the test compounds for 48 hours. IL-17A, IL-17F and INF-γ were then determined in the culture supernatant using a Luminex BioPlex system, following the manufacturer's instructions (BioRad, Munich, Germany). For screening, compounds were used at 10, 1, 0.1 and 0.01 μM. To determine the IC50, compounds were titrated semilogarithmically.
(§3) Cytokines were determined in the aforementioned culture supernatant using the following methods: IL-17AA/AF was measured using the Luminex BioPlex system (BioRad, Munich, Germany); IL-17AA using the human homodimer IL-17A ELISA Ready Set Go Kit from eBioscience (Frankfurt, Germany); IL-17FF using the human IL-17F ELI-Pair from Hölzel DiagnosticaGmBH (Köln, Germany); and IFN-γ using the OptEIA human IFN-g ELISA from BD Bioscience (Heidelberg, Germany), all following the manufacturer's instructions.

In test [2] the test system is IFN-γ. Kind of test: IFN-γ production by PHA-stimulated human PBMC (OptEIA human IFN-g ELISA). The following applies: 48 hours. As for the experimental part:
as §1, §2, §3
(In an ELISA, binding on a coated surface is turned into a signal by an enzyme label.)

Test [3] relates to PBMC from healthy human donors. Kind of test: T cell proliferation assay (PHA-stimulated human PBMC, BrdU ELISA). The following applies: PHA-stimulated human PBMC, 48 hours, column D, read-out: IC50 (Tcell proliferation). Here is the method:
Cell proliferation was analysed using the BrdU based cell proliferation ELISA from Roche (Mannheim, Germany) according to the manufacturer's instructions. T Cell Proliferation Assay Peripheral blood mononuclear cells (PBMC) from healthy human donors were isolated by centrifugation over Ficoll-Hypaque (Sigma-Aldrich, Germany) according to manufacturer's instructions. Purified PBMC were washed twice with PBS and resuspended in RPMI1640 culture medium supplemented with 10% dialyzed heat inactivated fetal calf serum, 1.5 mM L-glutamine, 100 U penicillin/ml, and […] (all from PAN Biotech, Aidenbach, Germany). For stimulation, PBMC were seeded at 1×10^5 cells/well, activated with 2 μg/ml phytohaemagglutinin (PHA, Sigma) and incubated with the test compound. After 48 hours proliferation was measured using the BrdU based cell proliferation ELISA from Roche (Mannheim, Germany) according to the manual.
For orientation: Incorporation of labelled thymidine or its analogues reports DNA synthesis.

Where [4] appears, read: PHA-stimulated human PBMC, column B, read-out: IC50 (IL-17FF).
Where [5] appears, read: PHA-stimulated human PBMC, column C, read-out: IC50 (IFNγ).

With `COC(=O)c1c(-c2c(F)cccc2Cl)noc1-c1cnn(-c2ccc([N+](=O)[O-])cc2)c1C(F)(F)F` [Example I-69, methyl 3-(2-chloro-6-fluorophenyl)-5-(1-(4-nitrophenyl)-5-(trifluoromethyl)-1H-pyrazol-4-yl)isoxazole-4-carboxylate], the IC50 in test [1] (setting [4]) and in test [2] (setting [5]) was 1 to 10 µM each time.

On to `CNC(=O)c1c(-c2c(F)cccc2Cl)noc1-c1cnn(-c2ccc(OC(F)(F)F)cc2)c1C(F)(F)F` [Example I-56, 3-(2-chloro-6-fluorophenyl)-N-methyl-5-(1-(4-(trifluoromethoxy)phenyl)-5-(trifluoromethyl)-1H-pyrazol-4-yl)isoxazole-4-carboxamide], for which the IC50 in test [1] (setting [4]) lay within 1 to 10 µM.

With `CC(=O)Nc1cccc(-n2ncc(-c3onc(-c4c(F)cccc4Cl)c3-c3nnc(C)o3)c2C(F)(F)F)c1` [Example B-11, N-(3-(4-(3-(2-chloro-6-fluorophenyl)-4-(5-methyl-1,3,4-oxadiazol-2-yl)isoxazol-5-yl)-5-(trifluoromethyl)-1H-pyrazol-1-yl)phenyl)acetamide], the IC50 in test [1] (human PBMC, 2 μg/ml PHA, read-out: B: IC50 (IL-17FF)) was 1 to 10 µM; in test [2] (human PBMC, 2 μg/ml PHA, read-out: C: IC50 (IFNγ)), 0.1 to 1 µM.

Regarding `CCOC(=O)c1c(-c2ccc(OC)cc2)noc1-c1cnn(-c2cccc(F)c2)c1C(F)(F)F` [Example I-100, ethyl 5-(1-(3-fluorophenyl)-5-(trifluoromethyl)-1H-pyrazol-4-yl)-3-(4-methoxyphenyl)isoxazole-4-carboxylate], the IC50 in test [1] (setting [4]) and in test [2] (setting [5]) was 1 to 10 µM in each case.

For `COC(=O)c1c(-c2c(F)cccc2Cl)noc1-c1cnn(-c2ccccc2OC)c1C(F)(F)F` [Example I-52, methyl 3-(2-chloro-6-fluorophenyl)-5-(1-(2-methoxyphenyl)-5-(trifluoromethyl)-1H-pyrazol-4-yl)isoxazole-4-carboxylate], the IC50 in test [1] (setting [4]) and in test [2] (setting [5]) was 0.1 to 1 µM in each case.

For the compound `CNC(=O)c1c(-c2ccccc2)noc1-c1cnn(-c2cc(F)cc(F)c2)c1C(F)(F)F` [Example I-113, 5-(1-(3,5-difluorophenyl)-5-(trifluoromethyl)-1H-pyrazol-4-yl)-N-methyl-3-phenylisoxazole-4-carboxamide], the IC50 in test [1] (setting [4]) and in test [2] (setting [5]) was 1 to 10 µM throughout.

For `CCOC(=O)c1c(-c2c(F)cccc2Cl)noc1-c1cnn(Cc2ccncc2)c1C(F)(F)F` [IB-85, ethyl 3-(2-chloro-6-fluorophenyl)-5-(1-(pyridin-4-ylmethyl)-5-(trifluoromethyl)-1H-pyrazol-4-yl)isoxazole-4-carboxylate], the IC50 in test [1] (setting [4]) and in test [2] (setting [5]) was 1 to 10 µM in each case.

For the compound `CNC(=O)c1c(-c2c(F)cccc2Cl)noc1-c1cnn(-c2ccncc2)c1C(F)(F)F` [IB-58, 3-(2-chloro-6-fluorophenyl)-N-methyl-5-(1-(pyridin-4-yl)-5-(trifluoromethyl)-1H-pyrazol-4-yl)isoxazole-4-carboxamide], the IC50 in test [1] (setting [4]) and in test [2] (setting [5]) was 1 to 10 µM throughout.

For `CC(=O)Nc1cccc(-n2ncc(-c3onc(-c4c(F)cccc4Cl)c3C(=O)N3CCCO3)c2C(F)(F)F)c1` [IB-88, N-(3-(4-(3-(2-chloro-6-fluorophenyl)-4-(isoxazolidine-2-carbonyl)isoxazol-5-yl)-5-(trifluoromethyl)-1H-pyrazol-1-yl)phenyl)acetamide], the IC50 in test [1] (setting [4]) and in test [2] (setting [5]) was 1 to 10 µM each time.

For `CON(C)C(=O)c1c(-c2c(F)cccc2Cl)noc1-c1cnn(-c2cccc(S(N)(=O)=O)c2)c1C(F)(F)F` [IB-66, 3-(2-chloro-6-fluorophenyl)-N-methoxy-N-methyl-5-(1-(3-sulfamoylphenyl)-5-(trifluoromethyl)-1H-pyrazol-4-yl)isoxazole-4-carboxamide], the IC50 in test [1] (setting [4]) and in test [2] (setting [5]) was 1 to 10 µM each time.

As to `CCOC(=O)c1csc(-n2ncc(-c3onc(-c4c(F)cccc4Cl)c3C(=O)OC)c2C(F)(F)F)n1` [Example I-53, methyl 3-(2-chloro-6-fluorophenyl)-5-(1-(4-(ethoxycarbonyl)thiazol-2-yl)-5-(trifluoromethyl)-1H-pyrazol-4-yl)isoxazole-4-carboxylate], the IC50 in test [1] (setting [4]) and in test [2] (setting [5]) was 1 to 10 µM throughout.

As to `Fc1cccc(-n2ncc(-c3onc(-c4c(F)cccc4Cl)c3C(=S)N3CCOCC3)c2C(F)(F)F)c1` [Example I-129, (3-(2-chloro-6-fluorophenyl)-5-(1-(3-fluorophenyl)-5-(trifluoromethyl)-1H-pyrazol-4-yl)isoxazol-4-yl)(morpholino)meth-anethione], the IC50 in test [1] (setting [4]) lay in the range of 1 to 10 µM.

Consider `CNC(=O)c1c(-c2ccc(Cl)c(Cl)c2)noc1-c1cnn(-c2cccc(F)c2)c1C(F)(F)F` [Example I-98, 3-(3,4-dichlorophenyl)-5-(1-(3-fluorophenyl)-5-(trifluoromethyl)-1H-pyrazol-4-yl)-N-methylisoxazole-4-carboxamide], for which, in test [1] (setting [4]), the IC50 was 1 to 10 µM.

Take `CNC(=O)c1c(-c2c(F)cccc2Cl)noc1-c1cnn(-c2cccc(NC(C)=O)c2)c1C(F)(F)F` [IB-91, 5-(1-(3-acetamidophenyl)-5-(trifluoromethyl)-1H-pyrazol-4-yl)-3-(2-chloro-6-fluorophenyl)-N-methylisoxazole-4-carboxamide]: the IC50 in test [1] (setting [4]) was in the range of 1 to 10 µM.

Regarding `Fc1cccc(Cl)c1-c1noc(-c2cnn(-c3ccc(OC(F)(F)F)cc3)c2C(F)(F)F)c1Br` [IB-25, 4-bromo-3-(2-chloro-6-fluorophenyl)-5-(1-(4-(trifluoromethoxy)phenyl)-5-(trifluoromethyl)-1H-pyrazol-4-yl)isoxazole], the IC50 in test [1] (setting [4]) lay in the range of 1 to 10 µM.

As for `CNC(=O)c1c(-c2c(F)cccc2Cl)noc1-c1cnn(-c2ccccc2Cl)c1C(F)(F)F` [IB-50, 3-(2-chloro-6-fluorophenyl)-5-(1-(2-chlorophenyl)-5-(trifluoromethyl)-1H-pyrazol-4-yl)-N-methylisoxazole-4-carboxamide], the IC50 in test [1] (setting [4]) lay in the range of 1 to 10 µM.

`CN1CCN(C(=O)c2c(-c3c(F)cccc3Cl)noc2-c2cnn(-c3cccc(Cl)c3)c2C(F)(F)F)CC1` [IB-34, (3-(2-chloro-6-fluorophenyl)-5-(1-(3-chlorophenyl)-5-(trifluoromethyl)-1H-pyrazol-4-yl)-isoxazol-4-yl)(4-methylpiperazin-1-yl)methanone]: the IC50 in test [2] (setting [5]) and in test [3] was 0.1 to 1 µM each time.

For `CCOC(=O)c1c(-c2ccc(Cl)cc2)noc1-c1cnn(-c2ccc(F)cc2)c1C(F)(F)F` [Example I-78, ethyl 3-(4-chlorophenyl)-5-(1-(4-fluorophenyl)-5-(trifluoromethyl)-1H-pyrazol-4-yl)isoxazole-4-carboxylate], the IC50 in test [1] (setting [4]) lay in the range of 1 to 10 µM.

Turning to `CNC(=O)c1c(-c2ccccc2F)noc1-c1cnn(-c2cccc(F)c2)c1C(F)(F)F` [Example I-93, 3-(2-fluorophenyl)-5-(1-(3-fluorophenyl)-5-(trifluoromethyl)-1H-pyrazol-4-yl)-N-methylisoxazole-4-carboxamide], the IC50 in test [1] (setting [4]) lay within 1 to 10 µM.

For `CC(=O)Nc1c(-c2c(F)cccc2Cl)noc1-c1cnn(-c2cccc(Cl)c2)c1C(F)(F)F` [IB-39, N-(3-(2-chloro-6-fluorophenyl)-5-(1-(3-chlorophenyl)-5-(trifluoromethyl)-1H-pyrazol-4-yl)-isoxazol-4-yl)acetamide], the IC50 in test [2] (setting [5]) and in test [3] was 1 to 10 µM each time.
